These results are taken from US20250114430A1, “MODIFIED PEPTIDOMIMETICS AND METHODS OF USE” (The University of North Carolina at Chapel Hill, priority 2021, published 2025).

In data set [1] the test system is P. aeruginosa. Description: P. aeruginosa infection in WT mice, ELD607 versus comparators. Format: in vivo. To be noted: WT mice infected with P. aeruginosa. From the text: We then infected WT mice with P. aeruginosa and treated with ELD607, the Orai1 small molecule antagonist […], dexamethasone or scrambled ELD607.
In data set [2] the test system is P. aeruginosa. Description: P. aeruginosa growth in the presence of peptide. The following applies: in vitro. Format: cell-based.
The target in a further data set is Orai1 (Homo sapiens, UniProt Q96D31). The experiment in a line: Dose response of Ca^2+ influx (SOCE), Ca^2+ add back approach, HEK293T cells. In kind it is cell-based. Further details: Endogenous Orai1/store operated Ca^2+ influx have been extensively studied in HEK293T cells; endogenous in cells; host or cells: HEK293T. As for the experimental part: HEK293T cells were cultured in 384 well plates. Cells were then exposed to vehicle or […] ELD607 for 1 h. 100 nM thapsigargin was then added followed by extracellular Ca^2+ to differentiate ER Ca^2+ release and SOCE. n=8-12 cultures per data point.
ELD607 requires Orai1 expression to inhibit Ca^2+ signaling. […] Using this approach, curves were fitted to the data and the 50% inhibitory concentrations (IC50S) were calculated.

Data set [3] addresses T1, human neutrophil elastase (Homo sapiens, UniProt P08246).
T1 sequence (P08246 30-267): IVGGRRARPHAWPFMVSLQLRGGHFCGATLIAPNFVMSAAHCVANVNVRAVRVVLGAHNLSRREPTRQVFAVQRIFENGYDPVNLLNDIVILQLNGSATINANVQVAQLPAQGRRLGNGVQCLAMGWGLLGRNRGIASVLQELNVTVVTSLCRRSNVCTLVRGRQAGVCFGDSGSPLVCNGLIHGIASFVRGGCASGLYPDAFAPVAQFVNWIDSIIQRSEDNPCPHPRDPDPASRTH
Format: in vitro ADME. Here is the method:
Peptides were exposed to NE over time, and the reaction was stopped by addition of sivelestat. HPLC was then performed in order to determine peptide stability. N=3-4 replicates per time point.
HEK293T cells were plated and incubated for 2 hours with Fluo-4 plus or minus ELD peptides, with fluorescent images taken every 30 seconds for 2-6 minutes at excitation/emission wavelengths of 488/530 nm. […] Candidate peptides ELD604, 607, 601, and 100 were tested for resistance against protease degradation, wherein the peptides were incubated with neutrophil elastase, treated with the elastase inhibitor sivelestat at various timepoints to halt ongoing reactions, and then analyzed by HPLC (FIG. 9).
Endogenous Orai1/store operated Ca^2+ influx have been extensively studied in HEK293T cells, so this cell type was used to understand ELD607-Orai1 interactions. […] Thapsigargin is a SERCA pump inhibitor that prevents uptake of cytosolic Ca^2+ into the endoplasmic reticulum. Thapsigargin is commonly used to stimulate Orai1/store operated Ca^2+ influx. […] Dynamic light scattering (DLS) was used to evaluate binding of ELD607 to peptides of Orai1 extracellular loops. […] Thus, it was concluded that ELD607 interacts with Orai1.

For data set [4], the system named is SARS-CoV-2 S1 pseudovirus. Format: cell-based.
Another data set relates to HEK293T cells. The experiment in a line: Cytoplasmic Ca^2+ (Fluo-4) in HEK293T cells incubated with ELD peptides. The following applies: 2 hours with Fluo-4 plus or minus peptide. In kind it is cell-based.

Non-standard residues stand in square brackets, D forms with d. No end group written: not given here.

Chain of Orai1 (Q96D31 whole entry): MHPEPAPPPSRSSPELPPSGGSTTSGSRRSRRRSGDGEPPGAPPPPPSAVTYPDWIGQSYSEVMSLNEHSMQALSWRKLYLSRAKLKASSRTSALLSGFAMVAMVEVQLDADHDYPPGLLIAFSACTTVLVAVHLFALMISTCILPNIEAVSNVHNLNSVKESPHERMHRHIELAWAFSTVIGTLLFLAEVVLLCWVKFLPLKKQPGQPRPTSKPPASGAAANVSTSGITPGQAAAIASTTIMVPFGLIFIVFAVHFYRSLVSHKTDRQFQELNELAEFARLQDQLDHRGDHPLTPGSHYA

Turning to `Cc1nnsc1C(=O)Nc1ccc(-n2nc(C(F)(F)F)cc2C(F)(F)F)cc1` [YM-58453, reference compound], the “neutrophilia, weight loss, bacterial infections and lung macrophage levels (these parameters)” value in the data set on P. aeruginosa [1] is given as “neither −58453, dexamethasone nor scrambled ELD607 had any significant effects”.

On to `O=C(O)c1cn(C2CC2)c2cc(N3CCNCC3)c(F)cc2c1=O` [ciproflaxin, reference compound], for which the P. aeruginosa growth entry with P. aeruginosa [2] was “fully inhibited bacterial growth”.

For “DITLVHDIVNMLIHGL [ELD100, DITLVHDIVNMLIHGL]”, on Orai1 (Ca^2+ influx, HEK293T, 100 nM thapsigargin, read-out: IC50 (Molar)), the IC50 stood at 0.037 µM. Further, the “Bottom (%)” value on Orai1 (fitted curve bottom, text: maximal inhibitions) was determined as 57.03%. For the same compound, the “stability against neutrophil elastase” value in data set [3] was “not neutrophil elastase resistant”.

For the compound HDINMLIHG [ELD601, HDINMLIHG], in data set [3], the “stability against neutrophil elastase” value is “still degraded by elastase”.

As to “a-HDIVNMLIH-a ([dA]HDIVNMLIH[dA]) [ELD604]”, the “pseudovirus infection (% DsRed-positive cells)” value in data set [4] was “inhibited viral replication”. The “cytoplasmic calcium levels as compared to a control scrambled peptide” value in the data set on HEK293T cells was “reduced cytoplasmic calcium levels”. Further, the “stability against neutrophil elastase” value in data set [3] is on record as “significantly more stable”.

With “n-VHDIVNMLIHG-n (VHDIVNMLIHG-NH2; not fully specified; also: N-terminal amidation) [ELD621]”, the “pseudovirus infection (% DsRed-positive cells)” value in data set [4] is given as “inhibited viral replication”. In addition, the “cytoplasmic calcium levels as compared to a control scrambled peptide” value with HEK293T cells is “reduced cytoplasmic calcium levels”.
